# Article PMC5321753, “Enhanced expression of ADCY1 underlies aberrant neuronal signalling and behaviour in a syndromic autism model” (Nature Communications, 2017)
# Columns and labels:
# ADCY1 = ADCY1 protein (western blot) and Adcy1 mRNA (qRT-PCR) in cultured hippocampal neurons after DHPG; assay type: cell-based, mouse; conditions: DHPG 100 μM
# Protocol: (§1) Primary hippocampal neurons were cultured as described, and used for the examination of mGluR1/5-mediated signalling and protein synthesis. Neurons were treated with 100 μM DHPG ((RS)-3,5-dihydroxyphenylglycine). Protein level and mRNA level were examined by western blot (for ADCY1, β-actin, p-ERK1/2 and ERK1/2) and quantitative RT-PCR (for Adcy1 and Gapdh mRNA), respectively.
# ERK1/2 = ERK1/2 activation in cultured hippocampal neurons after DHPG; assay type: cell-based, mouse; conditions: both WT and Fmr1 KO neurons, DHPG 100 μM
# Protocol: as §1
# WT and Fmr1 KO mice [1] = assay: Audiogenic seizures (AGS) induced by 120 dB sound; assay type: in vivo, mouse
# Protocol: Audiogenic seizures (AGS) were examined with 21- to 24-day-old-mouse (7), as this phenotype is dependent on the age of the mouse and only detected in juvenile Frm1 KO mouse. Mouse was placed in a box (30 cm L × 17 cm W × 12 cm H) with a flat plastic lid. A personal alarm (Streetwise, item # SWPDAL) was taped to the lid of the box and wired to a DC power supply to keep the sound amplitude constant. The mouse was allowed to acclimatize to the box for 5 min, following which 120 dB sound was emitted from the alarm for 2 min. The number of mice undergoing seizure activity within the 2-min period was counted. Audiogenic seizures were classified into different stages: wild running, clonic/tonic seizure and death.
# (§2) NB001 was dissolved in water to give a 25 mM stock solution. The stock was diluted in saline and IP injected into mice at 1 mg kg^−1 body weight. In all cases, the drug was administered 1 h before testing. Control mice were treated similarly but injected with saline.
# (§3) To inhibit phosphodiesterase (PDE), rolipram was dissolved in 10% kolliphore and IP injected into mice at 0.5 or 0.03 mg kg^−1. The use of the higher dose (that is, 0.5 mg kg^−1) was to ensure sufficient inhibition of PDE[44][45]. […] Rolipram- or vehicle (10% kolliphore)-injected mice were examined with light/dark test and AGS 30 min after drug administration.
# fly model of FXS = tested on: fly model of FXS; set-up: method as in PMID 25568131; conditions: cited from earlier work
# Fmr1 KO mice [2] = tested on: Fmr1 KO mice; set-up: method as in PMID 27445731; conditions: cited from earlier work
# WT and Fmr1 KO mice [3] = assay: Light/dark test; assay type: in vivo, mouse
# Protocol: Light/dark test was examined as described in our previous study. Light/dark test was performed using 3-month (+/−10 days) old mouse, which was first placed in the dark half of the chamber (Coulbourn Instruments). After 1 min of habituation, the trap door was opened and the mouse was allowed to move freely between the two chambers for 5 min. The time spent in each chamber and the number of entries into the lit side were recorded.
# as §2, §3
# cAMP = tested on: cAMP; set-up: method as in PMID 9844008; conditions: lower dose 0.03 mg kg^-1; cited from earlier work
# Fmr1 KO mice [4] = tested on: Fmr1 KO mice; set-up: method as in PMID 25568131; conditions: cited from earlier work
# [5] = Fmr1 KO mice, rolipram 0.03 mg per kg, 30 min before 120 dB stimulation
# [6] = Fmr1 KO mice, rolipram 0.5 mg kg^-1 IP, 30 min before testing, 120 dB
# [7] = Fmr1 KO mice, rolipram at 0.5 or 0.03 mg kg^-1, systemic
# [8] = WT mice, rolipram 0.03 mg per kg, 30 min before 120 dB stimulation
# [9] = WT mice, rolipram 0.5 mg kg^-1 IP, 30 min before testing, 120 dB
smiles,measurement,setting,value
"NC(C(=O)O)c1cc(O)cc(O)c1 (racemic) [DHPG, (RS)-3,5-dihydroxyphenylglycine]",ADCY1 protein level in Fmr1 KO neurons,ADCY1; cultured Fmr1 KO hippocampal neurons,no DHPG-triggered increase
same,Adcy1 mRNA levels,ADCY1; cultured WT and Fmr1 KO hippocampal neurons,did not alter
same,ADCY1 protein level in WT neurons,ADCY1; cultured WT hippocampal neurons,up-regulation
same,downstream intracellular signalling target ERK1/2,ERK1/2,activates
COc1ccc(C2CNC(=O)C2)cc1OC1CCCC1 (stereo not drawn) [rolipram],% Clonic/tonic seizure,WT and Fmr1 KO mice [1]; [5],35.7%
same,% Death,WT and Fmr1 KO mice [1]; [5],14.3%
same,% Wild running,WT and Fmr1 KO mice [1]; [5],50%
same,% Clonic/tonic seizure,WT and Fmr1 KO mice [1]; [6],46.7%
same,% Death,WT and Fmr1 KO mice [1]; [6],13.3%
same,% Wild running,WT and Fmr1 KO mice [1]; [6],60%
same,AGS,WT and Fmr1 KO mice [1]; [7],did not correct
same,% Clonic/tonic seizure,WT and Fmr1 KO mice [1]; [8],0%
same,% Death,WT and Fmr1 KO mice [1]; [8],0%
same,% Wild running,WT and Fmr1 KO mice [1]; [8],13.3%
same,% Clonic/tonic seizure,WT and Fmr1 KO mice [1]; [9],0%
same,% Death,WT and Fmr1 KO mice [1]; [9],0%
same,% Wild running,WT and Fmr1 KO mice [1]; [9],25%
same,learning and memory in the fly model of FXS,fly model of FXS,improved
same,signalling abnormalities in the hippocampus,Fmr1 KO mice [2],failed to correct
same,abnormal behaviour in light/dark test,WT and Fmr1 KO mice [3]; [7],did not correct
same,behavioral changes in light/dark test (treatment effect),"WT and Fmr1 KO mice [3]; WT or Fmr1 KO mice, rolipram 0.03 mg per kg i.p., 30 min after injection",n.s.
same,behavioural changes in light/dark test (drug effect),"WT and Fmr1 KO mice [3]; WT or Fmr1 KO mice, rolipram 0.5 mg kg^-1 i.p., 30 min after injection",does not cause significant behavioural changes
same,cAMP changes,cAMP,not sufficient to cause cAMP changes
same,exaggerated mGluR1/5-mediated long-term synaptic depression phenotype,Fmr1 KO mice [4],rescued
